Reference: ChEMBL document CHEMBL2311415, “Cytotoxic quassinoids from Ailanthus altissima” (Bioorg Med Chem Lett, 2013)
pIC50: −log10 of the molar value.

How the values were obtained:
[1] = Cytotoxicity against human Hep3B cells measured after 48 hrs by MTT assay; assay type: functional, cell-based, Hep 3B2
HepG2 [2] = assay: Cytotoxicity against human HepG2 cells measured after 48 hrs by MTT assay; assay type: functional, cell-based; conditions: HepG2, 48 h
HepG2 [3] = assay: Cytotoxicity against human adriamycin-resistant HepG2 cells measured after 48 hrs by MTT assay; assay type: functional, cell-based; conditions: HepG2, 48 h

Row | SMILES | pIC50 [1] | pIC50 (HepG2 [2]) | pIC50 (HepG2 [3])
1 | C=C1[C@@H](O)[C@]2(O)OC[C@@]34[C@H]1[C@@H](OC(=O)[C@](C)(O)CC)C(=O)O[C@@H]3C[C@H]1C(C)=C[C@H](O)[C@@H](O)[C@]1(C)[C@@H]24 | 6.01 | 5.94 | 4.71
2 | C[C@@H]1C[C@H](O)C(=O)[C@]2(C)[C@H]3[C@H](O)C(=O)[C@H](C)[C@@H]4CC(=O)O[C@H](C[C@@H]12)[C@]34C [AMAROLIDE] | < 4.30 | < 4.30 | < 4.30
3 | CC1=CC(=O)O[C@@H]1[C@@]1(C)C[C@H]2OC(=O)C[C@H]3[C@@H](C)C(=O)C(O)=C1[C@@]23CO [SHINJULACTONE B] | < 4.30 | < 4.30 | < 4.30
4 | COc1cccc2c1C(=O)c1c(O)c3c(c(O)c1C2=O)C[C@@](O)(C(=O)CO)C[C@@H]3O[C@H]1C[C@H](N)[C@H](O)[C@H](C)O1 [DOXORUBICIN] | 6.54 | – | 4.07
5 | CC1=CC(=O)[C@@H](O)[C@]2(C)[C@H]3[C@@]4(O)OC[C@@]35[C@@H](C[C@@H]12)OC(=O)C[C@H]5[C@@H](C)[C@H]4O [CHAPARRINONE] | 5.66 | 5.92 | < 4.30
6 | C[C@H]1[C@H](O)C(=O)[C@@H]2[C@@]3(C)[C@H](O)[C@@H](O)C[C@@H](C)[C@@H]3C[C@H]3OC(=O)C[C@@H]1[C@@]23C [CHAPARROLIDE] | < 4.30 | < 4.30 | < 4.30
7 | C=C1[C@@H](O)[C@@]2(O)OC[C@@]34[C@H]1[C@@H](OC(=O)C(C)CC)C(=O)O[C@@H]3C[C@H]1C(C)=C[C@H](O)[C@@H](O)[C@]1(C)[C@@H]24 (stereo partly specified) [ALTISSINOL B] | 5.63 | 5.91 | < 4.30
8 | C=C1[C@H](O)[C@]2(O)OC[C@]34[C@H]2[C@@]2(C)[C@H](O)[C@@H](O)C=C(C)[C@@H]2C[C@H]3OC(=O)C[C@@H]14 [SHINJULACTONE A] | 5.10 | 5.33 | < 4.30
9 | C/C=C(/C)C(=O)O[C@@H]1[C@H]2C(C)=C[C@H](O)[C@@H](O)[C@]2(C)[C@H]2[C@@]3(O)OC[C@@]24[C@@H]1OC(=O)C[C@H]4[C@@H](C)[C@H]3O | 5.61 | 4.98 | < 4.30
10 | CC(=O)O[C@@H]1C(=O)[C@H](C)[C@@H]2CC(=O)O[C@@H]3C[C@H]4[C@H](C)C[C@H](O)C(=O)[C@]4(C)[C@@H]1[C@@]32C | < 4.30 | < 4.30 | < 4.30
11 | CC1=CC(=O)[C@]2(O)[C@@]3(O)C(=O)[C@@H]4[C@]5(CO)[C@H]6CC(=O)O[C@@H]5C[C@@]1([C@@]42C)[C@]63C [SHINJULACTONE C] | < 4.30 | < 4.30 | < 4.30
12 | C/C=C(/C)C(=O)O[C@@H]1[C@H]2C(C)=CC(=O)[C@@H](O)[C@]2(C)[C@H]2[C@@]3(O)OC[C@@]24[C@@H]1OC(=O)C[C@H]4[C@@H](C)[C@H]3O | 7.30 | 6.26 | 4.77
13 | C=C1[C@@H](O)[C@@]2(O)OC[C@@]34[C@H]1[C@@H](OC(=O)C(O)(CC)COC(=O)/C(C)=C\C)C(=O)O[C@@H]3C[C@H]1C(C)=CC(=O)[C@@H](O)[C@]1(C)[C@@H]24 (stereo partly specified) [ALTISSINOL A] | 6.43 | 6.55 | < 4.30
14 | CC[C@](C)(O)C(=O)O[C@H]1C(=O)O[C@@H]2C[C@H]3C(C)=C[C@H](O)[C@@H](O)[C@]3(C)[C@H]3[C@]4(O)OC[C@]32[C@@H]1[C@@H](C)[C@H]4O [GLAUCARUBIN] | 4.63 | 4.45 | < 4.30
